Results reported in article PMC9738062, “Selectively Halogenated Flavonolignans—Preparation and Antibacterial Activity” (International Journal of Molecular Sciences, 2022).

Tests used:
[1] = test system: Vibrio campbellii BAA 1119 (AI-2); assay: Viability of the quorum-sensing reporter culture (resazurin assay), AI-2 strain; format: cell-based; conditions: BAA1119, V. campbellii BAA 1119, resazurin assay, read-out: IC50 (concentration that halved the viability)
How it was run: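 Mutant V. campbellii strains responding only to AI-1 (BAA-1118) or AI-2 (BAA-1119), seeded at 5 × 10^5 CFU/mL in Autoinducer Bioassay medium (potassium phosphate pH 7.0); compounds at final 0.2–200 µM.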

[2] = test system: P. aeruginosa (CCM, 3955); assay: Inhibition of biofilm formation (surface colonization); format: cell-based; conditions: Pseudomonas aeruginosa; highest tested concentration 100 µM
Description: Biofilm formation is a fully organized, multistep process in which bacteria are constantly communicating with each other.
The activity of derivatives on biofilms was tested with S. aureus (ATCC, 25923) and P. aeruginosa (CCM, 3955), according to the previously described method. The highest tested concentration of derivatives was 100 µM. The activity was evaluated using an IC50 comparison between the parent compound and its derivative.

[3] = test system: multidrug-resistant S. aureus; assay: Sensitization of antibiotic-resistant bacteria (compound plus breakpoint antibiotic concentration); format: cell-based, Staphylococcus aureus; conditions: flavonoid 40 µM, 24 h; for Effect on viability in combination with chloramphenicol: chloramphenicol 8 mg/L; for Effect on viability in combination with gentamicin: gentamicin 1 mg/L
How it was run: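 A multidrug-resistant clinical isolate of S. aureus from the General University Hospital in Prague was grown in Mueller–Hinton broth with flavonoid derivatives combined with a EUCAST breakpoint concentration of antibiotic. MIC was determined according to ISO 20776-1: 2020, and viability was read as absorbance at A590 nm after 24 h at 37 °C and 150 rpm.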

[4] = ABTS cation radical scavenging; conditions: vitamin C equivalent antioxidant capacity
How it was run: (§1)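 ABTS and DPPH radical scavenging gauged antiradical activity. Reducing capacity was measured as reduction of Folin–Ciocalteu reagent and of ferric ions (FRAP).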

[5] = Folin-Ciocalteu reagent reduction; conditions: gallic acid equivalents
How it was run: as §1

[6] = test system: doxorubicin-resistant human ovarian carcinoma (HOC/DOX); assay: Cytotoxicity (resazurin assay, 72 h); format: cell-based; conditions: for IC50: Homo sapiens, 72 h, resazurin assay; for SI (selectivity index): ratio IC50 for HDF / IC50 for HOC/DOX
How it was run: (§2)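 HDF and HOC/DOX cells in DMEM with 10% FBS were treated 24 h after seeding with 31.25–500 µM compound for 72 h at 37 °C. Viability was read by resazurin fluorescence (560/590 nm) after 2 h; IC50 came from nonlinear regression, and selectivity index = IC50(HDF)/IC50(HOC/DOX).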

[7] = test system: human dermal fibroblasts (HDF); assay: Cytotoxicity (resazurin assay, 72 h); format: cell-based; conditions: Fibroblast
How it was run: as §2

SMILES | IC50 [1] [µM] | IC50 [2] [µM] | Effect on viability in combination with chloramphenicol [3] | Effect on viability in combination with gentamicin [3] | ABTS [CEAC] [4] [CEAC] | FCR [GAE] [5] [GAE] | IC50 [6] [µM] | SI (selectivity index) [6] | IC50 [7] [µM]
COc1cc([C@@H]2Oc3cc([C@H]4Oc5cc(O)cc(O)c5C(=O)[C@@H]4O)ccc3O[C@H]2CO)ccc1O [3b, silybin B, reference compound] | 152 ± 2.4 | 105 | - | - | 0.55 ± 0.05 | 1.39 ± 0.08 | 202 | 0.41 | 83.3 ± 5.4
COc1cc([C@@H]2Oc3c(O)cc([C@H]4Oc5cc(O)cc(O)c5C(=O)[C@@H]4O)cc3[C@H]2CO)ccc1O [compound 5, silychristin A, reference compound] | > 200 | 73 | - | - | 1.73 ± 0.02 | 1.87 ± 0.07 | 205 | 0.56 | 115
